# Measured values from patent EP4105218A1, “SUBSTITUTED PYRROLO[2,3-D] PYRIMIDINES, THEIR PREPARATION AND THEIR THERAPEUTIC APPLICATION” (SANOFI, priority 2021, dated 2022).
# What was measured:
# LRRK2-G2019S(human) = biological target: T1, LRRK2-G2019S(human) (Homo sapiens, UniProt Q5S007, G2019S); test: LRRK2-G2019S Kinase activity assay (Lanthascreen TR-FRET); type: biochemical; settings: full-length LRRK2 G2019S, LRRKtide substrate, 1.1mM ATP
# T1 construct: DYKDDDDK (FLAG)
# Method: LRRK2-G2019S Kinase activity assay: The measurements of the activities were made using a LRRK2-G2019S(human) Kinase activity assay as described hereunder. The potency of compounds was evaluated in vitro using the Lanthascreen® technology (ThermoFisher Scientific).
# The biological assay requires the […]-tagged full-length LRRK2 G2019S protein, the fluorescent peptide substrate named LRRKtide or ERM ([…] supplied by PolyPeptide Group), the ATP substrate, and different concentrations of test compounds. In a typical experiment, the reaction assay buffer contains 50mM Tris pH8.2, 1mM EGTA, 2.5mM MgCl2, 0.05% Triton X100, 0.15% BSA and 1mM DTT. The detection of the assay is performed using 1nM Terbium labeled anti-phospho-LRRKtide (ThermoFisher Scientific) diluted in a TR-FRET buffer (ThermoFisher Scientific).
# The experimental procedure was performed with Greiner small volume® 384-well. The assay is started by a pre-incubation step of full-length LRRK2 G2019S mutant protein with reaction assay buffer and a dilution series of test compound for at least 30 minutes at room temperature. The working solution of compounds was prepared in a separate Greiner microplate.
# The kinase reaction was initiated by addition of the ATP/LRRKtide substrate mix diluted in the reaction assay buffer. The reaction mix was incubated for at least 10 minutes at room temperature (initial velocity conditions). Reaction was stopped by addition of Terbium labeled anti-phospho-LRRKtide diluted into the detection buffer supplemented with EDTA (ThermoFisher Scientific). Plates are incubated for at least 30 minutes at room temperature and read on an Envision™ multimode plate reader (PerkinElmer) with LanthaScreen™. The TR-FRET 520:495 nm emission ratio was calculated and used to determine the IC50 value from a dose response curve fit to the 4-parameter logistic equation. The activity with respect to LRRK2 kinase in this test is given by the concentration which inhibits 50% of the LRRK2 activity (or IC50) in nM.
# LRRK2(human) WT = LRRK2(human) WT (Homo sapiens, UniProt Q5S007); test: LRRK2 WT assay (assay A), Lanthascreen TR-FRET; type: biochemical; settings: assay A (values without "*"): full-length LRRK2 wild type, 500uM ATP
# Sequence of LRRK2(human) WT (Q5S007 whole entry): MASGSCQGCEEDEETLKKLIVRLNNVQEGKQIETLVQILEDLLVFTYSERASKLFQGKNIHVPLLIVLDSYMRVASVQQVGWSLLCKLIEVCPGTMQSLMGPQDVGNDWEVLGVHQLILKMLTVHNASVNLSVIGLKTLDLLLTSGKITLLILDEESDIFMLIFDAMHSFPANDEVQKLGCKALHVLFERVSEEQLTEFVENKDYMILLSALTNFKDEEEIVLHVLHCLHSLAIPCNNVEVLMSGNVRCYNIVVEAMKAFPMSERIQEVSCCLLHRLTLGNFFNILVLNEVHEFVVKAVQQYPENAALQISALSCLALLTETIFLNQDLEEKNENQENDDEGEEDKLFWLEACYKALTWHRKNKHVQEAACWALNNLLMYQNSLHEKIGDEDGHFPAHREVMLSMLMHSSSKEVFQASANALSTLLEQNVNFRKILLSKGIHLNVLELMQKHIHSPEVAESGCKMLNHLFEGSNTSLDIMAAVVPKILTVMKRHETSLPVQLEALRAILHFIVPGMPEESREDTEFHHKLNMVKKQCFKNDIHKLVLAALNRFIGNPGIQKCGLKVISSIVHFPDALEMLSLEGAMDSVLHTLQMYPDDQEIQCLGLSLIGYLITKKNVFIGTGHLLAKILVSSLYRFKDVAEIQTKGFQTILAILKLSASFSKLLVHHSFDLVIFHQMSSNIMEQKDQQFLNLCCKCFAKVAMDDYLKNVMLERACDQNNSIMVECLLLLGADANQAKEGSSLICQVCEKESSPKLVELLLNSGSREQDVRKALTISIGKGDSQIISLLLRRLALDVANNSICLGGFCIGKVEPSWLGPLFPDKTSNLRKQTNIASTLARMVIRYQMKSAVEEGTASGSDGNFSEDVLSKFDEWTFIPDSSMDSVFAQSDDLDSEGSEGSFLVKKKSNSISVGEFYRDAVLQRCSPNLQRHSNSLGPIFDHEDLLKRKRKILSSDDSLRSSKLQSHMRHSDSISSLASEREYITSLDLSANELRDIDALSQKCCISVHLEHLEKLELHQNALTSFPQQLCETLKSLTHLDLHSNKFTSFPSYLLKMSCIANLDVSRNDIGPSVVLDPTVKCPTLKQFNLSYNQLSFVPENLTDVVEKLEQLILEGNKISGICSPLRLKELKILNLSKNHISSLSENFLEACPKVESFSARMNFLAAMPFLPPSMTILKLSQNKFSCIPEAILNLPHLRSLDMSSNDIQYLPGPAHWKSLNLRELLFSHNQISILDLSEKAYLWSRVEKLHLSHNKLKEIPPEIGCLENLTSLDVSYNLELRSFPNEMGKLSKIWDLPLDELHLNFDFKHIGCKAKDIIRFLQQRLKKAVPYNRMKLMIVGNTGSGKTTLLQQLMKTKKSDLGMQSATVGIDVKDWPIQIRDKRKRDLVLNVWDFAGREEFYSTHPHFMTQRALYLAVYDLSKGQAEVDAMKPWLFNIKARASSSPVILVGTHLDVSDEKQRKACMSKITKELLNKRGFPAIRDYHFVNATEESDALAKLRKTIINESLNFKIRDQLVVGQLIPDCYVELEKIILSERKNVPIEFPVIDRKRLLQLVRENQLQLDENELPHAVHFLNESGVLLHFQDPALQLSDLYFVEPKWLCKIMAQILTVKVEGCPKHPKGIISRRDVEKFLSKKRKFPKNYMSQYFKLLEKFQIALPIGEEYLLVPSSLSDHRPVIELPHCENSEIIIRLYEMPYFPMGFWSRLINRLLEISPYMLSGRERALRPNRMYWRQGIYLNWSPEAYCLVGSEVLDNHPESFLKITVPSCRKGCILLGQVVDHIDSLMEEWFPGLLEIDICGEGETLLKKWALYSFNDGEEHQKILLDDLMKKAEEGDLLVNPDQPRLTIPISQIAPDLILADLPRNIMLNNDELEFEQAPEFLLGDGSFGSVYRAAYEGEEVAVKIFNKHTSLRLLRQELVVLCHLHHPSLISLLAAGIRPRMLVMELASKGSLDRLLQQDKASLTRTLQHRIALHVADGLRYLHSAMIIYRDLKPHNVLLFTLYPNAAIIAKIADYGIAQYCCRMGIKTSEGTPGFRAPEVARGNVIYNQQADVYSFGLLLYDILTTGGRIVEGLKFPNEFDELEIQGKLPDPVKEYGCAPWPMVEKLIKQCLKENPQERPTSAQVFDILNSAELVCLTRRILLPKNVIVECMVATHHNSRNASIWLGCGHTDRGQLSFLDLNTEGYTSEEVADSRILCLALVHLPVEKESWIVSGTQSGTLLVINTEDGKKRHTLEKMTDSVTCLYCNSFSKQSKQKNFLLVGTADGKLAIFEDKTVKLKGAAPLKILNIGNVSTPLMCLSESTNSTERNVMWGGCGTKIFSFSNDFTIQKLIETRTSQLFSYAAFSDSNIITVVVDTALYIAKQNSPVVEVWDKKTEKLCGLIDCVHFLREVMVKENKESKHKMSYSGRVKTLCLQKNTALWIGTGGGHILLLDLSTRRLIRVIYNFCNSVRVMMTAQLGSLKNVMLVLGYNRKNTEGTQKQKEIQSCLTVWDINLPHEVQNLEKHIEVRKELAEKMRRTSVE
# T1 sequence (Q5S007 whole entry G2019S): as the sequence (Q5S007 whole entry) above, with G2019S counted along it
IC50 (LRRK2-G2019S(human)) [nM],IC50 (LRRK2(human) WT) [nM],Compound
5,,"COCC(C)n1c(C#N)cc2cnc(Nc3cn(C)nc3OC3COC3C)nc21 (single isomer, unassigned) [Example 87, 7-[(1S)-2-methoxy-1-methyl-ethyl]-2-[[1-methyl-3-[(2S, 3R)-2-methyloxetan-3-yl]oxy-pyrazol-4-yl]amino]pyrrolo[2,3-d]pyrimidine-6-carbonitrile or 7-[(1S)-2-methoxy-1-methyl-ethyl]-2-[[1-methyl-3-[(2R, 3S)-2-methyloxetan-3-yl]oxy-pyrazol-4-yl]amino]pyrrolo[2,3-d]pyrimidine-6-carbonitrile]"
5,,"[2H]C([2H])([2H])n1cc(Nc2ncc3cc(C#N)n(C(C)COC)c3n2)c(OC2COC2C)n1 (single isomer, unassigned) [Example 89, 7-[(1S)-2-methoxy-1-methyl-ethyl]-2-[[3-[(2S,3R)-2-methyloxetan-3-yl]oxy-1-(methyl-d3)pyrazol-4-yl]amino]pyrrolo[2,3-d]pyrimidine-6-carbonitrile or 7-[(1S)-2-methoxy-1-methyl-ethyl]-2-[[3-[(2R,3S)-2-methyloxetan-3-yl]oxy-1-(methyl-d3)pyrazol-4-yl]amino]pyrrolo[2,3-d]pyrimidine-6-carbonitrile]"
3,3,"CC(=O)N1CC(Oc2nn(C)cc2Nc2ncc3cc(C#N)n([C@H]4COC[C@@H]4C)c3n2)C1(C)C (single isomer, unassigned) [Example 17]"
2,2,"CC(=O)N1CC(Oc2nn(C)cc2Nc2ncc3cc(C#N)n([C@H]4COC[C@@H]4C)c3n2)C1(C)C (single isomer, unassigned) [Example 18]"
